Reference: PMC12163822, “Synthesis and Pharmacological Characterization of a Novel Cannabinoid Receptor 1 Antagonist” (ACS Omega, 2025)
“Also recorded” adds a separate entry of the source.

Legend:
human CB2 receptor = molecular target: T1, human CB2 receptor (Homo sapiens, UniProt P34972); assay: [3H]CP55,940 inhibition curves in membranes from CHO cells overexpressing human CB2; assay type: binding
T1 construct: purchased Sigma-Aldrich; host or cells: CHO cells
Procedure: Membrane homogenates from CHO cells overexpressing human CB1 and CB2 receptors, as well as matched wild-type cells, were used to test newly synthesized compounds and were acquired from Sigma-Aldrich (St Louis, MO, USA).
(§1) To stop the reaction, an ice-cold wash buffer (50 mM Tris–HCl and 0.5% BSA, pH 7.4) was added. Then, the membranes were retained by vacuum filtration to a Whatman GF/C glass microfiber filter (Sigma-Aldrich, St. Louis, MO, USA) and the free radioligand was discarded. Filters with the bound radioligand were transferred to vials containing 5 mL of Ultima Gold cocktail (Revvity, Boston, MA, USA) and measured with a Packard Tri-Carb 2200CA liquid scintillation counter (Revvity, Boston, MA, USA).
A concentration of 0.02 mg/mL of commercial WT (as control) and CB1 and CB2 overexpressing CHO cells were used, and the same protocol described above was followed. Rat spleen homogenates were also used at a concentration of 0.1 mg/mL as a further characterization of binding to the CB2 receptor, given the high expression of this receptor in this tissue and the practical lack of CB1 in it.

CB2 receptor = molecular target: T2, CB2 receptor (Rattus norvegicus, UniProt Q9QZN9); assay: [3H]CP55,940 inhibition curves in rat spleen membrane homogenates (CB2-enriched); assay type: binding, Sprague-Dawley rat
T2 construct: from tissue; host or cells: Sprague-Dawley rat spleen
T2 sequence (Q9QZN9 1-360): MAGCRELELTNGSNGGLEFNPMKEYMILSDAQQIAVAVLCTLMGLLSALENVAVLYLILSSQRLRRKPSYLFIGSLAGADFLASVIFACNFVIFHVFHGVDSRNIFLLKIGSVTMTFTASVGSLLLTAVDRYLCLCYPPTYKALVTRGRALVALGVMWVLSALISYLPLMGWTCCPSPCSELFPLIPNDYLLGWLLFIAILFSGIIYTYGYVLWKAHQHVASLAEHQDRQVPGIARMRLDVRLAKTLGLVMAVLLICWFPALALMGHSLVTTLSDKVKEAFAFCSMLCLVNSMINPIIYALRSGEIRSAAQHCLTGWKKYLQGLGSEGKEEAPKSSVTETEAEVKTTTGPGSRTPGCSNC
Procedure: Sprague–Dawley rats (n = 5) were anesthetized and sacrificed by decapitation. Spleens and brains were then quickly removed by dissection at 4 °C, and in the case of the brain tissue, the cortex was dissected for the preparation of the membrane homogenates. For this procedure, spleen and cortex samples were homogenized using a Teflon-glass grinder (15 up-and-down strokes at 800 rpm) in 30 volumes of homogenization buffer (1 mM EGTA, 3 mM MgCl2, 50 mM Tris–HCl; pH 7.4) supplemented with […], at 4 °C. The obtained homogenates were centrifuged for 5 min at 1500 rpm. Pellets were removed, and supernatants were centrifuged again for 15 min at 14,000 rpm. For washing, the obtained pellets were resuspended in a buffer and centrifuged again, and the supernatant was removed. The resulting aliquots were stored at −80 °C until use.
as §1, with “USA). […]” for “USA).”

CB1 receptor [1] = molecular target: T3, CB1 receptor (Mus musculus, UniProt P47746); assay: Functional [35S]GTPγS autoradiography in mouse brain slices; assay type: biochemical, Swiss mice; conditions: for [35S]GTPγS binding, Stimulation (% over basal), CP55,940 + UVI3502 / [35S]GTPγS binding, Stimulation (% over basal): mouse; for [35S]GTPγS binding, Stimulation (% over basal), CP55,940 + UVI3502: CP55,940 and UVI3502 both at 10 µM; for [35S]GTPγS binding, Stimulation (% over basal): compound alone 10 µM
T3 construct: fresh frozen sections from brain samples from wild-type; from tissue; host or cells: Swiss mouse brain sections
Procedure: All brain sections were air-dried for 30 min and then immersed in Coplin jars for preincubation (4 times, 15 min each time) in an HEPES-based buffer (50 mM HEPES, 100 mM NaCl, 3 mM MgCl2, 0.2 mM EGTA, 0.5% BSA; pH 7.4) at 30 °C. The objective of this preincubation was the removal of endogenous ligands. […] Basal [^35S]-GTPγS binding was defined in the absence of the agonists in two consecutive slices. To define nonspecific binding, 10 μM of unlabeled GTPγS was added to the incubation in another section. Following incubation, slices were twice washed in an ice-cold 50 mM HEPES buffer (pH 7.4), dried, and exposed for 48 h to β-radiation sensitive film with a set of [^14C] standards calibrated for [^35S]. Calibrated films were scanned and quantified using Fiji software (Fiji, Bethesda, […], USA). The signal corresponding to nonspecific binding was previously subtracted from the basal and agonist-stimulated binding. Then, the data was expressed as the percentage of stimulation over basal following the formula: ([^35S]-GTPγS agonist-stimulated binding) × 100/([^35S]-GTPγS basal binding)-100.

CB1 receptor [2] = molecular target: CB1 receptor (Rattus norvegicus, UniProt P20272); assay: [35S]GTPγS functional binding assay in rat cortex membrane homogenates; assay type: biochemical; set-up: functional assays in membrane homogenates from the rat cortical tissue; from tissue; host or cells: Sprague-Dawley rat brain cortex
Procedure: The compound with the best affinity was also tested using functional [^35S]-GTPγS binding assays to characterize its activity as an agonist or antagonist/inverse agonist. A protein concentration of 0.1 mg/mL of rat cortex homogenates and a protein concentration of 0.02 mg/mL of commercial CB1 overexpressing CHO cells were used for these assays, suspended in a reaction buffer (Tris–HCl 50 mM, EGTA 1 mM, MgCl2 3 mM, NaCl 100 mM, 0.5% BSA; pH 7.4). The target compound was used in concentrations ranging from 10^–11 to 10^–4 M and incubated for 2 h at 37 °C with agitation in the presence of 0.5 nM [^35S]-GTPγS and 50 μM GDP. Basal coupling of [^35S]-GTPγS to Gi/o proteins was determined by incubating the membrane aliquots with the radioligand in the absence of the target compound. To define nonspecific binding, 10 μM of unlabeled GTPγS was added to the incubation.

[3] = nucleus basalis magnocellularis

T3 sequence (P47746 whole entry): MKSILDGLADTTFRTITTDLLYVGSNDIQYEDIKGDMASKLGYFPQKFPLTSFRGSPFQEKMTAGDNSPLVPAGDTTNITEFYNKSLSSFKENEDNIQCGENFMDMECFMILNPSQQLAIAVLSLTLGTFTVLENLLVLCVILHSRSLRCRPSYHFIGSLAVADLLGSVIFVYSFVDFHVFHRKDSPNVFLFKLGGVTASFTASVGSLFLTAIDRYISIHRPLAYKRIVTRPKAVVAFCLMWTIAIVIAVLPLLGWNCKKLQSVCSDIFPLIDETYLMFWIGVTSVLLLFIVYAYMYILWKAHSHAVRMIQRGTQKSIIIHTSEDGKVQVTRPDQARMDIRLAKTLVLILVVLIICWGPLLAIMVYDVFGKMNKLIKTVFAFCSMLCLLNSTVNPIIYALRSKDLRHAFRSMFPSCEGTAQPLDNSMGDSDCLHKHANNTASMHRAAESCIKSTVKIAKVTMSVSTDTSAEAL
CB1 receptor (Rattus norvegicus, UniProt P20272), sequence (P20272 whole entry): as the sequence (P47746 whole entry) above, with D95E counted along it
T1 sequence (P34972 whole entry): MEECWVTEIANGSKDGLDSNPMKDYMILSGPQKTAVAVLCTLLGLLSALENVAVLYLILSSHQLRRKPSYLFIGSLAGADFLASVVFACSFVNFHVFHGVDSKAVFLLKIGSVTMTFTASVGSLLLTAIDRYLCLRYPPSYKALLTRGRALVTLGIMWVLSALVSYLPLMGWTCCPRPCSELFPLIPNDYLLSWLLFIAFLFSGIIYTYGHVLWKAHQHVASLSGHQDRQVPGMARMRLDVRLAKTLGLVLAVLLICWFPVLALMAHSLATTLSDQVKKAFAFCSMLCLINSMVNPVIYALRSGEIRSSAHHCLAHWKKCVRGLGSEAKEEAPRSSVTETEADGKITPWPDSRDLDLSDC

IC50 (human CB2 receptor): 16.2 ± 0.131 µM
maximum inhibition of [3H]CP55,940 binding (human CB2 receptor; CB2 overexpressing CHO membranes): approximately 83%
IC50 (CB2 receptor): 10.23 ± 0.0178 µM
maximum inhibition of [3H]CP55,940 binding (CB2 receptor; rat spleen membrane homogenates): ~61%
activity on CP55,940-evoked [35S]GTPγS stimulation (CB1 receptor [1]; mouse brain slices, 10 µM, result in words): acts as an antagonist
[35S]GTPγS binding, Stimulation (% over basal), CP55,940 + UVI3502 (CB1 receptor [1]; amygdala): 0 ± 78 % over basal
[35S]GTPγS binding, Stimulation (% over basal) (CB1 receptor [1]; amygdala): -16 ± 51 % over basal
[35S]GTPγS binding, Stimulation (% over basal), CP55,940 + UVI3502 (CB1 receptor [1]; cerebellum (gray matter)): 6 ± 23 % over basal
[35S]GTPγS binding, Stimulation (% over basal) (CB1 receptor [1]; cerebellum (gray matter)): -43 ± 9 % over basal
[35S]GTPγS binding, Stimulation (% over basal), CP55,940 + UVI3502 (CB1 receptor [1]; cortex): -51 ± 11 % over basal
[35S]GTPγS binding, Stimulation (% over basal) (CB1 receptor [1]; cortex): -55 ± 9 % over basal
[35S]GTPγS binding, Stimulation (% over basal), CP55,940 + UVI3502 (CB1 receptor [1]; globus pallidus): 91 ± 104 % over basal
[35S]GTPγS binding, Stimulation (% over basal) (CB1 receptor [1]; globus pallidus): -46 ± 29 % over basal
[35S]GTPγS binding, Stimulation (% over basal), CP55,940 + UVI3502 (CB1 receptor [1]; hippocampus dorsal): -36 ± 8 % over basal
[35S]GTPγS binding, Stimulation (% over basal) (CB1 receptor [1]; hippocampus dorsal): -38 ± 12 % over basal
[35S]GTPγS binding, Stimulation (% over basal), CP55,940 + UVI3502 (CB1 receptor [1]; [3]): -30 ± 37 % over basal
[35S]GTPγS binding, Stimulation (% over basal) (CB1 receptor [1]; [3]): -20 ± 65 % over basal
[35S]GTPγS binding, Stimulation (% over basal), CP55,940 + UVI3502 (CB1 receptor [1]; striatum): -52 ± 13 % over basal
[35S]GTPγS binding, Stimulation (% over basal) (CB1 receptor [1]; striatum): -52 ± 18 % over basal
[35S]GTPγS binding, Stimulation (% over basal), CP55,940 + UVI3502 (CB1 receptor [1]; substantia nigra): 181 ± 128 % over basal
[35S]GTPγS binding, Stimulation (% over basal) (CB1 receptor [1]; substantia nigra): -58 ± 11 % over basal
EC50 (CB1 receptor [2]; slight decrease of baseline [35S]GTPγS binding, rat brain cortex membrane homogenates): 0.00406 ± 0.00327 µM
SMILES: CCOC(=O)/C=C1\C(=O)Nc2ccc(C)cc2-c2c1c1cc(OC)ccc1n2C(=O)OCC [UVI3502]
stimulation of [35S]GTPγS binding (coupling of CB1 to Gi/o proteins) (CB1 receptor [2]; rat cortex membrane homogenates, result in words): does not; also recorded: did not stimulate the coupling of CB1 receptors to Gi/o proteins
